Assay results published in PubChem BioAssay (NCI).
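Dose response: 5 concentrations. Exposure: 48 h. Format: 96-well plates. Endpoint: linear interpolation; highest concentration if not reached. At the GI50, growth is halved. TGI: total growth inhibition.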

What was measured:
Test in all cases: DTP human tumour cell line panel, 48 h
A549 NSCLC = tested on: A549 NSCLC
COLO 205 colon = tested on: COLO 205 colon
MALME-3M melanoma = tested on: MALME-3M melanoma
SF-268 CNS = tested on: SF-268 CNS
SW-620 colon = tested on: SW-620 colon
U251 CNS = tested on: U251 CNS
UO-31 renal = tested on: UO-31 renal
OVCAR-5 ovarian = tested on: OVCAR-5 ovarian
NCI/ADR-RES ovarian = tested on: NCI/ADR-RES ovarian
HS 578T breast = tested on: HS 578T breast

| Structure (SMILES) | TGI (A549 NSCLC) [µM] | TGI (COLO 205 colon) [µM] | TGI (MALME-3M melanoma) [µM] | TGI (SF-268 CNS) [µM] | TGI (SW-620 colon) [µM] | TGI (U251 CNS) [µM] | TGI (UO-31 renal) [µM] | TGI (OVCAR-5 ovarian) [µM] | GI50 (A549 NSCLC) [µM] | GI50 (COLO 205 colon) [µM] | GI50 (NCI/ADR-RES ovarian) [µM] | TGI (NCI/ADR-RES ovarian) [µM] | GI50 (OVCAR-5 ovarian) [µM] | GI50 (SF-268 CNS) [µM] | GI50 (SW-620 colon) [µM] | GI50 (U251 CNS) [µM] | GI50 (UO-31 renal) [µM] | GI50 (MALME-3M melanoma) [µM] | TGI (HS 578T breast) [µM] | GI50 (HS 578T breast) [µM] |
| --- | --- | --- | --- | --- | --- | --- | --- | --- | --- | --- | --- | --- | --- | --- | --- | --- | --- | --- | --- | --- |
| CCN(CC)C(=S)N/N=C(\C)c1ccccc1O | 43.4 | > 100 | > 100 | > 100 | > 100 | 89 | 61.9 |  |  |  |  |  |  |  |  |  |  |  |  |  |
| COc1cc2c(cc1OC)[C@@H](C(O)c1ccccc1)NCC2 (stereo not given in full) | > 100 | > 100 | > 100 | > 100 | > 100 | > 100 | > 100 | > 100 |  |  |  |  |  |  |  |  |  |  |  |  |
| NC(=NC1CCCCCC1)c1ccc(N2CCN(c3ccc(C(N)=NC4CCCCCC4)cc3)CC2)cc1 | > 50 | > 50 |  | 15 | > 50 | 11.3 | > 50 | > 50 | 9.29 | 14.7 | > 50 | > 50 | 25.4 | 6.92 | 10.8 | 3.02 | 33.7 |  |  |  |
| Cc1cc(N/N=C/c2nc(-c3ccccc3)oc2C)c2cc(Cl)ccc2n1 | 3.58 | 3.66 | 3.51 |  | 3.7 | 3.34 | 3.07 | 3.12 | 1.85 | 1.8 | 1.84 | 3.95 | 1.62 |  | 1.81 | 1.78 | 1.61 | 1.94 |  |  |
| CC(=O)Oc1cccc2c1C(=O)C(Br)(Br)CCC2 | 40 | 17.2 | 5.59 | 42.7 | 9.13 | 23.7 | 23.2 | 21.9 |  |  |  |  |  |  |  |  |  |  | 39.7 |  |
| O=Cc1[nH]c2ccccc2c1Br | > 100 | 34.7 | 45.1 | 69.8 | > 100 | 51.1 | 97 | > 100 |  |  |  |  |  |  |  |  |  |  |  |  |
| CCCCC(=O)[O-].N.N.N.N.N.[Co+3].[O-][Cl+3]([O-])([O-])[O-] | > 100 | > 100 | > 100 | > 100 | > 100 | > 100 | > 100 | > 100 | > 100 | > 100 |  |  | > 100 | > 100 | > 100 | > 100 | > 100 | > 100 |  |  |
| CC(=O)OC[C@@H]1[C@H]2CC(=O)O[C@H]2C[C@H]1OC(C)=O | > 100 | > 100 | > 100 | > 100 | > 100 | > 100 | > 100 | > 100 |  |  |  |  |  |  |  |  |  |  |  |  |
| CC(C)(C)C(=O)C(c1ccc(-c2cscn2)cc1)c1ccc(-c2cscn2)cc1 | > 100 | > 100 | > 100 | 97.5 | > 100 | > 60.8 | > 81.9 | > 100 |  |  |  |  |  |  |  |  |  |  |  |  |
| Cc1nn2c(/C=C3/C(=O)Nc4ccc(Cl)cc43)c(-c3ccccc3)nc2s1 | 5.51 | 13.5 | 5.57 | 5.19 | 19.7 | 3.71 | 13.2 | 25.9 | 2.25 | 3.9 |  |  | 8.38 | 2.06 | 4.51 | 1.73 | 1.07 | 2.17 | 7.79 | 2.45 |
| CC(=S)NNC(=O)c1ccncc1 | > 100 | > 100 | > 100 | > 100 | > 100 | > 100 | > 100 | > 100 |  |  |  |  |  |  |  |  |  |  |  |  |
| CN(C)c1ccc(/C=C2\N=C(c3ccc(N)cc3)OC2=O)cc1 | > 100 | > 100 | > 100 | > 100 | > 100 | > 100 | > 100 | > 100 |  |  |  |  |  |  |  |  |  |  |  |  |
| N#CC(C#N)=CN1CCN(C(=O)c2ccccc2)C1=S | > 100 |  | 64.1 | 49 | > 100 | > 100 | 47.3 |  | 37.1 |  | > 100 | > 100 |  | 21.3 | 33.7 | 38.2 | 20.4 | 10.2 |  |  |
| COc1ccc(C=NC23CC4CC(CC(C4)C2)C3)cc1 | > 100 | > 10 | > 100 | > 100 | > 100 | > 100 | > 100 | > 100 |  |  |  |  |  |  |  |  |  |  |  |  |
| CCOC(=O)NC(=O)c1cn(CCCOC(=O)CCCCCCCCC(=O)OCCCn2cc(C(=O)NC(=O)OCC)c(=O)[nH]c2=O)c(=O)[nH]c1=O | > 100 | 64.4 |  |  | 60.3 | 41.4 |  |  |  |  |  |  |  |  |  |  |  |  |  |  |
| O=C(Nc1nccs1)c1cc(C2=CC=CC([N+](=O)[O-])C=C2)nc(=S)[nH]1 (stereo not given) | > 100 | > 100 | > 100 | > 100 | > 100 | > 100 | > 100 | > 100 |  |  |  |  |  |  |  |  |  |  |  |  |

| Structure (SMILES) | TGI (A549 NSCLC) [µM] | TGI (COLO 205 colon) [µM] | TGI (MALME-3M melanoma) [µM] | TGI (SF-268 CNS) [µM] | TGI (SW-620 colon) [µM] | TGI (U251 CNS) [µM] | TGI (UO-31 renal) [µM] | TGI (OVCAR-5 ovarian) [µM] | GI50 (A549 NSCLC) [µM] | GI50 (COLO 205 colon) [µM] | GI50 (NCI/ADR-RES ovarian) [µM] | TGI (NCI/ADR-RES ovarian) [µM] | GI50 (OVCAR-5 ovarian) [µM] | GI50 (SF-268 CNS) [µM] | GI50 (SW-620 colon) [µM] | GI50 (U251 CNS) [µM] | GI50 (UO-31 renal) [µM] | GI50 (MALME-3M melanoma) [µM] | TGI (HS 578T breast) [µM] | GI50 (HS 578T breast) [µM] |
| --- | --- | --- | --- | --- | --- | --- | --- | --- | --- | --- | --- | --- | --- | --- | --- | --- | --- | --- | --- | --- |
| O=C(O)c1ccc([N+](=O)[O-])c2c(=O)c3ccccc3[nH]c12 | > 100 | > 100 | > 100 | > 100 | > 100 | > 100 | > 100 | > 100 |  |  |  |  |  |  |  |  |  |  |  |  |
| O=C(N/N=C/c1cc(Br)cc(Br)c1[O-])c1ccccc1O.O=C(N/N=C/c1cc(Br)cc(Br)c1[O-])c1ccccc1O.[Mn+2] | 25.5 | 13.2 | 16.6 | 10.6 | 24.1 | 14.8 | 24.2 | 16.4 |  |  |  |  |  |  |  |  |  |  |  |  |
| CC(=O)O[C@@H]1CC(C)C2CC2C2=C(C(O)OC2O)[C@@H]1C(C)CCC=C(C)C (stereo not given in full) | 51.7 | 32.5 | 67 | 65.5 | 51.2 | 41.1 | 47.6 | 35.1 |  |  |  |  |  |  |  |  |  |  |  |  |
| COC1=C(C(=O)OC(C)(C)C)[C@]2(C)C(C(=O)OC(C)(C)C)C(OC)=C(C(=O)OC(C)(C)C)[C@]2(C)C1C(=O)OC(C)(C)C (stereo not given in full) | > 100 | > 100 | > 100 | > 100 | > 100 | > 100 | > 100 | > 100 |  |  |  |  |  |  |  |  |  |  |  |  |
| O[C@]12CCCC[C@H]1CCC2 | > 100 | > 100 | > 100 | > 100 | > 100 | > 100 | > 100 | > 100 |  |  |  |  |  |  |  |  |  |  |  |  |
| N#CC1(c2nc3ccccc3o2)C(=O)C(=O)N(c2ccc(Cl)c(Cl)c2)C(=O)C1=O | > 100 | > 100 | > 100 | > 100 | > 100 |  | > 100 | > 100 |  |  |  |  |  |  |  |  |  |  |  |  |
| COC1CC(OS(=O)(=O)c2ccc(C)cc2)C(OS(=O)(=O)c2ccc(C)cc2)C(COS(=O)(=O)c2ccc(C)cc2)O1 (stereo not given) | 19.3 | > 100 | 8.57 | 3.02 | 57.7 | 11.6 | 12.1 | 51.5 |  |  |  |  |  |  |  |  |  |  |  |  |
| C=C(CN1CCN(c2ccccc2F)CC1)c1ccc(C(=O)Nc2ccccc2N)cc1 | 35.4 | 11.1 | > 100 | > 100 | > 100 | 14.7 | 17.3 | > 100 | 3.52 | 2.67 |  |  | 1.29 | 2.36 | 1.97 | 1.4 | 1.32 | 1.53 | > 100 | 3.14 |
| O=C1NC2(O)c3ccccc3C(=O)C2(O)N1c1ccccc1 (stereo not given) | > 100 | > 100 | > 100 | > 100 | > 100 | > 100 | > 100 | > 100 |  |  |  |  |  |  |  |  |  |  |  |  |
| CC1OC(OC2C(Oc3cc(O)c4c(=O)cc(-c5ccc(O)cc5)oc4c3)OC(CO)C(O)C2O)C(O)C(O)C1O (stereo not given) | > 100 | > 100 | > 100 | > 100 |  | > 100 | > 100 | > 100 |  |  |  |  |  |  |  |  |  |  |  |  |
| Cc1c(C(=O)CC(=O)C(=O)Nc2cccc(C(F)(F)F)c2)[n+](=O)c2ccccc2n1[O-] | 32.1 | 13.4 | 13.3 | 14.4 | 12.2 | 11 | 30.2 | 19.5 |  |  |  |  |  |  |  |  |  |  |  |  |
| COc1ccc(/C=C2\CNC/C(=C\c3ccc(OC)cc3)C2=O)cc1 | > 100 | > 100 | > 100 | 79.2 | > 100 | > 100 | > 100 | > 100 |  |  |  |  |  |  |  |  |  |  |  |  |
| Cc1cc2c(c(C#N)c1C)NC(=O)C(CC(=O)O)C2=O (stereo not given) | > 100 | > 100 | > 100 | > 100 | > 100 | > 100 | > 100 | > 100 |  |  |  |  |  |  |  |  |  |  |  |  |
| Cc1ccc(C2=Nc3ccccc3NC(=O)C2)cc1 | > 100 | > 100 | > 100 | > 100 | > 100 | > 100 | > 100 | > 100 |  |  |  |  |  |  |  |  |  |  |  |  |
| C=CCN=C1N=C(CC(=O)OCC)CS1 | > 100 | > 100 | > 100 | > 100 | > 100 | > 100 | > 100 | > 100 |  |  |  |  |  |  |  |  |  |  |  |  |
| Cc1cc(S(=O)(=O)NC#N)c(S/C(=N\Nc2ccc([N+](=O)[O-])cc2)c2ccccc2)cc1Cl | 40.8 | > 100 | 39.6 | 43.7 | 30.8 | 28.1 | 36.7 | 32.4 | 18.7 | 44.7 |  |  | 15.7 | 19.2 | 17.1 | 14.9 | 15.5 | 16.5 | 43.2 | 16.2 |
